Test results taken from patent publication US20230293535A1, “ERBB/BTK INHIBITORS” (Dizal (Jiangsu) Pharmaceutical Co., Ltd., priority 2018, published 2023).
Structures can show the parent of a compound that is named as a salt. Where two headings read alike, the source gives them in different places.

Experiments:
Type in all cases: cell-based
WT EGFR = molecular target: T1, WT EGFR (Homo sapiens, UniProt P00533); test: WT EGFR cellular phosphorylation inhibition in A-431 (hEGF stimulated, MSD); details: A431 cells, 4 h compound, then 100 ng/ml hEGF 10 min;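 note: electrochemiluminescence read-out of EGFR Tyr1068 phosphorylation expressed as ratio to total EGFR, cells kept in medium with 1% FBS, compounds tested as a concentration series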
T1 construct: host or cells: A-431
T1 sequence (P00533 25-1210): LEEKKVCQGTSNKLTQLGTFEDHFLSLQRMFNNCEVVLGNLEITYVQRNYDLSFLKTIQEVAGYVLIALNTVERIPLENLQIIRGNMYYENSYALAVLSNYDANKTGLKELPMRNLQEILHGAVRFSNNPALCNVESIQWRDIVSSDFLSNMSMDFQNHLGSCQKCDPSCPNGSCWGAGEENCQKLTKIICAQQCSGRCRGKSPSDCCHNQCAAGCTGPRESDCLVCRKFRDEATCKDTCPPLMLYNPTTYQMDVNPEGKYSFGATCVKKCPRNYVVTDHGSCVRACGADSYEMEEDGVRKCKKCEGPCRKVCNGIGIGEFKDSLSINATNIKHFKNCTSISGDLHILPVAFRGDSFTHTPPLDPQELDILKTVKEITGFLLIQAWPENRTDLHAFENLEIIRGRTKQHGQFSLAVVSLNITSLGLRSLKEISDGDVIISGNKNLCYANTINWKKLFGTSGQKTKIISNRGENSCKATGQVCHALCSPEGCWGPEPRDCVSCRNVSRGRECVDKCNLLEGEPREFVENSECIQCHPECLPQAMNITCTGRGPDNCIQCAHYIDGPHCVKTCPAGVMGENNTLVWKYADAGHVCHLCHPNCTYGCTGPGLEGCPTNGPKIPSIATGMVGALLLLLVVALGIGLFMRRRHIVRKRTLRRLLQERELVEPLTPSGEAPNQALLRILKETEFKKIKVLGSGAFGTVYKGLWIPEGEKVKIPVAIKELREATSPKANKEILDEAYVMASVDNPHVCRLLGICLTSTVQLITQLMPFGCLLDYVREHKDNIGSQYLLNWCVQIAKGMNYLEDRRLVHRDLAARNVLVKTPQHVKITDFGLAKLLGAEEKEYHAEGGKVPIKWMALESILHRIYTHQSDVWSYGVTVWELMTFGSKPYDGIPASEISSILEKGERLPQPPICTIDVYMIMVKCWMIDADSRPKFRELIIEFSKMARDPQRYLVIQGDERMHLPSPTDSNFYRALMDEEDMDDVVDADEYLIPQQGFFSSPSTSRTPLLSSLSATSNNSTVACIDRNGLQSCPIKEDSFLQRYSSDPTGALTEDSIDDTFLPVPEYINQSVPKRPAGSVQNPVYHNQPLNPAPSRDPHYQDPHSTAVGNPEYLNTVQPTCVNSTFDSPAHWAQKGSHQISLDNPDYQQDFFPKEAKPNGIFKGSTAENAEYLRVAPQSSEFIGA
Method: (§1) One day before the test, WT or mutant cells were seeded in 96 well plates at appropriate concentrations with corresponding growth media supplemented with 1% FBS, and incubated overnight. The next day, tested compounds at a series of concentrations were added into each individual well of the plates, and the plates were incubated for 4 h at 37° C. with 5% CO2.
(§2) The EGFR (Y1068) phosphorylation level (activity) of cells in each well were then measured with MSD kit named “MULTI-SPOT®96 4-Spot HB Prototype EGFR Triplex [sequence]: pEGFR(Tyr1068),pEGFR(Tyr1173), Total EGFR” according to the manufacturer’s instruction (MESO SCALE DISCOVERY, Cat# N45ZB-1). The assay is an electrochemiluminescent method for determining both phosphorylated and total EGFR of cells with an MSD SECTOR® Imager and the ratio of p-EGFR/total EGFR can be generated by the machine. The Her2 (Y1248) phosphorylation level (activity) of cells in each well were measured with MSD Kit named “Phospho-ErbB2 (Tyr1248) Assay Whole Cell Lysate Kit” according to the manufacturer’s instruction (MESO SCALE DISCOVERY, Cat# K151CLD-3). The assay is an electrochemiluminescent method (MESO SCALE DISCOVERY) for determining both phosphorylated and total Her2 of cells with an MSD SECTOR® Imager and then the ratio of p-Her2/total Her2 can be generated by the machine.

[1] = molecular target: T2, human Her2 exon 20 insertion mutation YVMA (Homo sapiens, UniProt P04626, INS775YVMA); test: Her2 Exon 20 YVMA insertion cellular phosphorylation inhibition (MSD p-Her2 Y1248/total Her2); details: Her2 YVMAins cells, 4 h compound;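 note: lentivirally transduced NIH-3T3 cells in 1% FBS medium, electrochemiluminescent MSD read-out, graded compound concentrations at 37 °C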
T2 construct: expressed in transfected cells; host or cells: NIH-3T3, lentiviral transduction, puromycin selection
T2 sequence (P04626 with tags, fused parts or gaps INS775YVMA): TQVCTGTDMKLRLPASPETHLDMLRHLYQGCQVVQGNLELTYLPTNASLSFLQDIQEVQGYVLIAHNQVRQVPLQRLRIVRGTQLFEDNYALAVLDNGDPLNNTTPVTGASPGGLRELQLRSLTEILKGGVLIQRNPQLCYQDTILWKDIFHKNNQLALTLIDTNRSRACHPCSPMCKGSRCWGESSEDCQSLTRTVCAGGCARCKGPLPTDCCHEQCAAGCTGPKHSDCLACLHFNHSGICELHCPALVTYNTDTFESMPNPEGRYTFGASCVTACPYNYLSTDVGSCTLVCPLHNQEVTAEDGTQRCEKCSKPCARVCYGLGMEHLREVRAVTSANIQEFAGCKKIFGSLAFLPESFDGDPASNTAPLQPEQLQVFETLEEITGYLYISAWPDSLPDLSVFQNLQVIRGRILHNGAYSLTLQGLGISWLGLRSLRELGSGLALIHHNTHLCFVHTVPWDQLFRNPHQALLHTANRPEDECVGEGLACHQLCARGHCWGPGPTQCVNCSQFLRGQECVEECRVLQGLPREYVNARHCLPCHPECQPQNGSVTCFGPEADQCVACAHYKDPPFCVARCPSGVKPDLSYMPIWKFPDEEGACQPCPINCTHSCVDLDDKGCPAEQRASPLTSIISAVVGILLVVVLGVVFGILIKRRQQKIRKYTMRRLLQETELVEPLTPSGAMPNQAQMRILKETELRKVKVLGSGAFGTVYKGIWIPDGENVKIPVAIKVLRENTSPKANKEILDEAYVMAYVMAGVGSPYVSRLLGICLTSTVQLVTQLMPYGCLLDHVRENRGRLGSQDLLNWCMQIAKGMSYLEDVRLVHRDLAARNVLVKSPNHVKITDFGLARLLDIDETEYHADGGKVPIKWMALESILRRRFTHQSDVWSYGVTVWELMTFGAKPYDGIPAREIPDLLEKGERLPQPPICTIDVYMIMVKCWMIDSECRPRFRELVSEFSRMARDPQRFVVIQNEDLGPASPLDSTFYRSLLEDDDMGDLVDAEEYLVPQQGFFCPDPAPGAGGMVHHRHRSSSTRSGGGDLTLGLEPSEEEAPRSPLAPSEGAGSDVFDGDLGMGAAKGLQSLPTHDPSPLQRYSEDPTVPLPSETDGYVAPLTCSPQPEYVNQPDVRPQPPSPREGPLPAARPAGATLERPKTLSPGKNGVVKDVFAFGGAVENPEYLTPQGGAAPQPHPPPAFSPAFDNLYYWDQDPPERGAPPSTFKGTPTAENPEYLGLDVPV

Ba/F3 EGFR NPH ins cells = test: Cell proliferation, Ba/F3 EGFR NPH ins (CellTiter-Glo, 72 h); details: Ba/F3 EGFR, 72 h;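 note: IL3-independent cells carrying constitutively phosphorylated EGFR, compound dilution series, viable cells quantified by ATP luminescence, growth relative to DMSO wells after subtracting pre-dosing (day 0) baseline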
[2] = system: Her2 exon 20 insertion YVMA transduced NIH-3T3 cell line; test: Cell proliferation, Her2 YVMAins NIH-3T3 (CellTiter-Glo, 72 h); details: Mus musculus, NIH3T3, 72 h, Her2 YVMAins cells, 72 h proliferation; read-out: Her2 Exon 20 YVMA insertion GI50;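 note: viable cells quantified by ATP luminescence, growth over a day-zero baseline plate expressed as percent of DMSO control growth, compound dilution series in 10% FBS medium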
WT EGFR cell line A-431 = test: Cell proliferation, WT EGFR A431 (CellTiter-Glo, 72 h); details: Homo sapiens, A-431, 72 h;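 note: proliferation from a luminescent ATP viability signal, expressed as 100 × (treated minus time-zero plate) over (DMSO control minus time-zero plate), cells grown with 10% FBS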
[3] = molecular target: T3, human EGFR exon 20 H773_V774insNPH (Homo sapiens, UniProt P00533, INS773NPH); test: EGFR Exon20 NPH insertion cellular phosphorylation inhibition (MSD pEGFR Y1068/total EGFR); details: Ba/F3 EGFR NPH ins cells, 4 h compound, p-EGFR(Y1068)/total EGFR;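 note: IL3-independent Ba/F3 cells with constitutively phosphorylated EGFR, compound exposure at 37 °C under 5% CO2, electrochemiluminescent MSD measurement of the p-EGFR to total EGFR ratio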
T3 construct: host or cells: Ba/F3
T3 sequence (P00533 with tags, fused parts or gaps INS773NPH): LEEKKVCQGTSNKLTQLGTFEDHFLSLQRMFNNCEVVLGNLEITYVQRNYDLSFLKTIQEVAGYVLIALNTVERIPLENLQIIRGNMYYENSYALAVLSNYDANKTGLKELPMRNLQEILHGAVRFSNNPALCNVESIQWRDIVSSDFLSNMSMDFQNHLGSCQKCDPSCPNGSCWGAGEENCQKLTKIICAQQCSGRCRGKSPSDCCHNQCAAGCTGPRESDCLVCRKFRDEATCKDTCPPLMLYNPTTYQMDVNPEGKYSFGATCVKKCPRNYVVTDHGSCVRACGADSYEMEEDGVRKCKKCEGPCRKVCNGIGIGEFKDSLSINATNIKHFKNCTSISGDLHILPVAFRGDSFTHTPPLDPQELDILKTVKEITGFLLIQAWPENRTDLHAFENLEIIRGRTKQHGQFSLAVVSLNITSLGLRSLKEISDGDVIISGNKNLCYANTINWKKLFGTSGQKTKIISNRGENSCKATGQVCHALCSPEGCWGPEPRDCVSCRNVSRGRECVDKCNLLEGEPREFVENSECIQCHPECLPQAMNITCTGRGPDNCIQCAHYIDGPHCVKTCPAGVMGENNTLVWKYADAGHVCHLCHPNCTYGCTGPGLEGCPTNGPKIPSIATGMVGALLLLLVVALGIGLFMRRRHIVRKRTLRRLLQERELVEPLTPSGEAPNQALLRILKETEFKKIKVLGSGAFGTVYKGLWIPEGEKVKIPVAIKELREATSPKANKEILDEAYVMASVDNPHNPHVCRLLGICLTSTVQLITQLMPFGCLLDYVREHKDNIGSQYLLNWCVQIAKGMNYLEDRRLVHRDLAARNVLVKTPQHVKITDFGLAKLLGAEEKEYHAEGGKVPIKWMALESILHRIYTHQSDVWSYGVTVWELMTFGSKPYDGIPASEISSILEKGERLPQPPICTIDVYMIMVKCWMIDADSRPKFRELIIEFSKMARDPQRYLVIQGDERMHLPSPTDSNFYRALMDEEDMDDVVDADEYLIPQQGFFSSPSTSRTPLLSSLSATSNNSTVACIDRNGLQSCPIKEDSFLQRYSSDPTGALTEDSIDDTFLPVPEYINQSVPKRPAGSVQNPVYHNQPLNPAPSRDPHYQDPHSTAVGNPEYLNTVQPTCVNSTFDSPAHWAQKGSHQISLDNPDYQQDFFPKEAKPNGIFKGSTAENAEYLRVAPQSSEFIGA

[4] = molecular target: T4, human EGFR exon 20 V769_D770insASV (Homo sapiens, UniProt P00533, INS769ASV); test: EGFR Exon20 ASV insertion cellular phosphorylation inhibition (MSD pEGFR Y1068/total EGFR); details: Ba/F3 EGFR ASV ins cells, 4 h compound, p-EGFR(Y1068)/total EGFR;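 note: electrochemiluminescent readout on an MSD SECTOR Imager, IL3-independent transduced cells in medium with 1% FBS, compound concentration series at 37 °C and 5% CO2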
T4 construct: expressed in transfected cells; host or cells: Ba/F3 (DSMZ ACC-300), lentiviral transduction, puromycin selection, IL3 depletion
Method: To generate the EGFR exon 20 V769_D770insASV transduced Ba/F3 cell line, the parental Ba/F3 cells were infected with the recombinant EGFR V769_D770insASV lentivirus and then followed by 1 µg/ml of puromycin selection and IL3 depletion. The resulting cell line expresses constitutively phosphorylated EGFR protein and proliferates in the absence of IL3, which could be used for in vitro PD and anti-proliferation assays.
as §1, §2

EGFR L858R&T790M = molecular target: T5, EGFR L858R&T790M (Homo sapiens, UniProt P00533, L858R/T790M); test: EGFR L858R and T790M cellular phosphorylation inhibition in NCI-H1975 (MSD); details: NCI-H1975 cells, 4 h compound, p-EGFR(Y1068)/total EGFR; read-out: EGFR L858R and T790M mutation IC50;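 note: phosphorylated and total EGFR detected by electrochemiluminescence, cells exposed to compound in medium containing 1% FBS at 37 °C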
T5 construct: host or cells: NCI-H1975
T5 sequence (P00533 25-1210 T790M/L858R): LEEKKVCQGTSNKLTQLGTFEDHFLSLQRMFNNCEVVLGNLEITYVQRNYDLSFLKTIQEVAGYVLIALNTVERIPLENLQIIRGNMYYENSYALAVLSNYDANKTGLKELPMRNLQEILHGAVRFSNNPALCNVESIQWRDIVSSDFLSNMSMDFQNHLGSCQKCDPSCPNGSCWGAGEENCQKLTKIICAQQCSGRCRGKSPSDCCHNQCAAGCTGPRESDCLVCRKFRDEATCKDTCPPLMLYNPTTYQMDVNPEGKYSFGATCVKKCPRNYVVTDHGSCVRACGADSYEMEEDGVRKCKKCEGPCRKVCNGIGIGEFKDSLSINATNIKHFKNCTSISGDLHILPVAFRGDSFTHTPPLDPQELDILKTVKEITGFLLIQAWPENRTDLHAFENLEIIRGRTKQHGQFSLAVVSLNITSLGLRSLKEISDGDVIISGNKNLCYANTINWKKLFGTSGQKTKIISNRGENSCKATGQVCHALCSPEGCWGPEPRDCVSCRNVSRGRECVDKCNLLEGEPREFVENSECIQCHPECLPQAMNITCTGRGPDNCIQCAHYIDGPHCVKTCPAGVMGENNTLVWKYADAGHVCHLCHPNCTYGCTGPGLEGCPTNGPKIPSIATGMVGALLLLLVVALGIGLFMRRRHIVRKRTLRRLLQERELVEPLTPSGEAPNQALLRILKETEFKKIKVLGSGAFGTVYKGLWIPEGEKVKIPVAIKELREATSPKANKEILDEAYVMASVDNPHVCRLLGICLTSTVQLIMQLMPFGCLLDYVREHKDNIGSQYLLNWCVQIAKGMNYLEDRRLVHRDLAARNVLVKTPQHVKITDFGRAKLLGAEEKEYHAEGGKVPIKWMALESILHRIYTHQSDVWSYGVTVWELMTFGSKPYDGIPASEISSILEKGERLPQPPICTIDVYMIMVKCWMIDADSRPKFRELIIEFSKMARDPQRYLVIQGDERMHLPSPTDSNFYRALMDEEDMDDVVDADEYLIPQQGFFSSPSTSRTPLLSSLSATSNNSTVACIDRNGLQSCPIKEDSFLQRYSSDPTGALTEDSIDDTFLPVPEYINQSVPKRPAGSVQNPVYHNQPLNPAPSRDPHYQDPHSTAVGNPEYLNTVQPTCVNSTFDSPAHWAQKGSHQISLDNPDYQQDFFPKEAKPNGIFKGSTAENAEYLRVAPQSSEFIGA

Ba/F3 EGFR ASV ins cells = test: Cell proliferation, Ba/F3 EGFR ASV ins (CellTiter-Glo, 72 h); details: Ba/F3 EGFR, 72 h;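 note: IL3-independent Ba/F3 cells transduced with EGFR V769_D770insASV, cellular ATP luminescence after compound exposure, growth relative to DMSO control with the day-0 baseline reading subtracted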
[5] = system: NCI-H1975 EGFR L858R/T790M cells; test: Cell proliferation, NCI-H1975 EGFR L858R/T790M (CellTiter-Glo, 72 h); details: Homo sapiens, NCI-H1975, 72 h;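 note: viable cells quantified by luciferase-based ATP luminescence, proliferation expressed relative to DMSO-treated wells (100%) after subtracting a parallel plate read at the time of dosing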
OCI-LY-10 cells = test: BTK (wt) cell proliferation, OCI-LY-10 (CellTiter-Glo, 72 h); details: Homo sapiens, OCI-Ly10, 72 h, OCI-LY-10 cells, 72 h, CellTiter-Glo; read-out: BTK WT OCI-LY-10 GI50;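 note: viable cells quantified via cellular ATP luminescence, proliferation given as percent of DMSO control after subtracting a duplicate plate read at time of dosing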
Ri-1 cells = test: BTK (wt) cell proliferation, Ri-1 (CellTiter-Glo, 72 h); details: Ri-1, 72 h, Ri-1 cells, 72 h, CellTiter-Glo; read-out: BTK WT Ri-1 GI50;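 note: viable cells quantified as cellular ATP luminescence, proliferation normalized to a time-zero plate and the DMSO control, compounds tested across a dilution series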
TMD-8 cells = test: BTK (wt) cell proliferation, TMD-8 (CellTiter-Glo, 72 h); details: Homo sapiens, TMD8, 72 h, TMD-8 cells, 72 h, CellTiter-Glo; read-out: BTK WT TMD-8 GI50;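 note: viable cells quantified by ATP-based luminescence, proliferation expressed as percent of DMSO control after subtracting a time-zero baseline plate read at dosing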
DB cells = test: BTK (wt) cell proliferation, DB (CellTiter-Glo, 72 h); details: Homo sapiens, DB, DB cells, CellTiter-Glo, read-out: Non-BCR activated DB GI50;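 note: DB cells in 384-well plates given a dilution series of compound, viable cells read by ATP luminescence, growth expressed versus DMSO control after subtracting a time-zero plate reading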
Method: OCI-LY-10 at 3,750 cells/well, TMD-8 and Ri-1 at 2,000 cells/well, and DB at 1,250 cells/well, respectively, were sorted into 384-well plates in RPMI1640 medium with 10% FBS. After overnight incubation, all cells were incubated with compound at a series of concentrations. Meanwhile, a duplicated plate of each cell line was prepared for measuring G0 value. The dosed plates were further incubated for 72 hours and the number of viable cells was measured by CellTiter-Glo® Luminescent Cell Viability Assay (Promega), a luminescent method for determining the number of viable cells through measurement of cellular ATP concentration using Envision plate reader (PerkinElmer). The percentage of proliferation was calculated as: % Proliferation = 100 × (G3 value of sample well - G0 value)/(G3 value of DMSO control - G0 value).

[6] = Ba/F3 EGFR NPH ins, 72 h proliferation, read-out: EGFR Exon20 NPH insertion GI50
[7] = A431, 72 h proliferation, read-out: EGFR WT A431 GI50
[8] = Ba/F3 EGFR ASV ins, 72 h proliferation, read-out: EGFR Exon20 ASV insertion GI50
[9] = NCI-H1975, 72 h proliferation, read-out: EGFR L858R and T790M mutation GI50

Compound | IC50 (WT EGFR) | IC50 [1] | GI50 (Ba/F3 EGFR NPH ins cells; [6]) | GI50 (WT EGFR cell line A-431; [7]) | IC50 [3] | IC50 [4] | IC50 (EGFR L858R&T790M) | GI50 (Ba/F3 EGFR ASV ins cells; [8]) | GI50 [5, 9] | GI50 (OCI-LY-10 cells) | GI50 [2] | GI50 (Ri-1 cells) | GI50 (TMD-8 cells) | GI50 (DB cells) | GI50 (Ba/F3 EGFR NPH ins cells; read-out: EGFR Exon20 NPH insertion GI50 (nM)) | GI50 (WT EGFR cell line A-431; read-out: EGFR WT A431 GI50 (nM)) | GI50 (Ba/F3 EGFR ASV ins cells; read-out: EGFR Exon20 ASV insertion GI50 (nM)) | GI50 ([5]; read-out: EGFR L858R and T790M mutation GI50 (nM))
C=CC(=O)Nc1cc(Nc2ncnc(Nc3ccccc3C(C)(C)O)n2)c(OC)cc1N1CCC[C@@H](N(C)C)C1 [Compound 1, (R)-N-(2-(3-(dimethylamino)piperidin-1-yl)-5-(4-(2-(2-hydroxypropan-2-yl)phenylamino)-1,3,5-triazin-2-ylamino)-4-methoxyphenyl)acrylamide] | 599 nM | 318 nM | 999 nM | 334 nM | 423 nM | 386 nM | 5.2 nM | 926 nM | 282 nM |  | 905 nM |  |  |  |  |  |  | 
C=CC(=O)Nc1cc(Nc2ncnc(Nc3cc(F)c(F)cc3C(C)(C)O)n2)c(OC)cc1N1CC[C@H]2CN(C)C[C@H]21 [Compound 25, N-(5-(4-(4,5-difluoro-2-(2-hydroxypropan-2-yl)phenylamino)-1,3,5-triazin-2-ylamino)-4-methoxy-2-((3aS,6aS)-5-methylhexahydropyrrolo[3,4-b]pyrrol-1(2H)-yl)phenyl) acrylamide] | 838 nM | 534 nM | 618 nM | 329 nM | 376 nM | 388 nM | 7.9 nM | 552 nM | 165 nM |  | 989 nM |  |  |  |  |  |  | 
C=CC(=O)Nc1cc(Nc2ncnc(Nc3cc(F)c(F)cc3C(C)(O)CC)n2)c(OC)cc1N1CC[C@H]2CN(C)C[C@H]21 (some centres unmarked) [Compound 50, N-(5-(4-(4,5-difluoro-2-(2-hydroxybutan-2-yl)phenylamino)-1,3,5-triazin-2-ylamino)-4-methoxy-2-((3 aS, 6aS)-5-methylhexahydropyrrolo[3,4-b]pyrrol-1 (2H)-yl)phenyl) acrylamide] | 1110 nM | 382 nM | 802 nM | 277 nM | 2630 nM | 308 nM | 19 nM | 449 nM | 30 nM |  | 1080 nM |  |  |  |  |  |  | 
C=CC(=O)Nc1cc(Nc2ncnc(Nc3cc(Cl)c(F)cc3C(C)(O)CC)n2)c(OC)cc1N1CCC[C@H]1CN(C)C (stereo partly drawn) [Compound 64, N-(5-(4-(5-chloro-4-fluoro-2-(2-hydroxybutan-2-yl)phenylamino)-1,3,5-triazin-2-ylamino)-2-((S)-2-((dimethylamino)methyl)pyrrolidin-1-yl)-4-methoxyphenyl)acrylamide] | 555 nM | 143 nM | 359 nM | 220 nM | 267 nM | 240 nM | 7.1 nM | 395 nM | 24.2 nM |  | 640 nM |  |  |  |  |  |  | 
C=CC(=O)Nc1cc(Nc2nccc(Nc3cc(Cl)c(F)cc3C(C)(C)O)n2)c(OC)cc1N1C[C@H](N(C)C)C2(CC2)C1 [Compound 83, (R)-N-(5-(4-(5-chloro-4-fluoro-2-(2-hydroxypropan-2-yl)phenylamino)pyrimidin-2-ylamino)-2-(7-(dimethylamino)-5-azaspiro[2.4]heptan-5-yl)-4-methoxyphenyl) acrylamide formic acid salt] | 1010 nM | 87.6 nM |  |  | 239 nM | 154 nM | 5 nM |  |  |  | 678 nM |  |  |  | 300 nM | 252 nM | 340 nM | 38.9 nM

Now those with a lower IC50 (WT EGFR), led by results:

IC50 (WT EGFR) | IC50 [1] | GI50 (Ba/F3 EGFR NPH ins cells; [6]) | GI50 (WT EGFR cell line A-431; [7]) | IC50 [3] | IC50 [4] | IC50 (EGFR L858R&T790M) | GI50 (Ba/F3 EGFR ASV ins cells; [8]) | GI50 [5, 9] | GI50 (OCI-LY-10 cells) | Compound | GI50 [2] | GI50 (Ri-1 cells) | GI50 (TMD-8 cells) | GI50 (DB cells) | GI50 (Ba/F3 EGFR NPH ins cells; read-out: EGFR Exon20 NPH insertion GI50 (nM)) | GI50 (WT EGFR cell line A-431; read-out: EGFR WT A431 GI50 (nM)) | GI50 (Ba/F3 EGFR ASV ins cells; read-out: EGFR Exon20 ASV insertion GI50 (nM)) | GI50 ([5]; read-out: EGFR L858R and T790M mutation GI50 (nM))
21.3 nM | 4.6 nM | 56 nM | 26.6 nM | 19.7 nM | 13.4 nM | 0.5 nM | 42.2 nM | 13.9 nM | 134 nM | C=CC(=O)Nc1cc(Nc2ncnc(Nc3ccccc3C3(O)CC3)n2)c(OC)cc1N(C)CCN(C)C [Compound 2, N-(2-((2-(dimethylamino)ethyl)(methyl)amino)-5-(4-(2-(1-hydroxycyclopropyl)phenylamino)-1,3,5-triazin-2-ylamino)-4-methoxyphenyl)acrylamide] | 45.2 nM | 86.6 nM | 130 nM | > 3000 nM |  |  |  | 
103 nM | 51.2 nM | 307 nM | 69.3 nM | 296 nM | 92.4 nM | 3.1 nM | 252 nM | 55.6 nM | 2510 nM | C=CC(=O)Nc1cc(Nc2ncnc(Nc3cnc(F)cc3C(C)(C)O)n2)c(OC)cc1N(C)CCN(C)C [Compound 3, N-(2-((2-(dimethylamino)ethyl)(methyl)amino)-5-(4-(6-fluoro-4-(2-hydroxypropan-2-yl)pyridin-3-ylamino)-1,3,5-triazin-2-ylamino)-4-methoxyphenyl) acrylamide] | 183 nM | > 3000 nM | 635 nM | > 3000 nM |  |  |  | 
11.1 nM | 5.5 nM | 32.2 nM | 15.7 nM | 8.2 nM | 6.1 nM | 0.4 nM | 20.7 nM | 6.9 nM | 8.9 nM | C=CC(=O)Nc1cc(Nc2ncnc(Nc3cc(F)c(F)cc3C(C)(C)O)n2)c(OC)cc1N(C)CCN(C)C [Compound 4, N-(5-(4-(4,5-difluoro-2-(2-hydroxypropan-2-yl)phenylamino)-1,3,5-triazin-2-ylamino)-2-((2-(dimethylamino)ethyl)(methyl)amino)-4-methoxyphenyl)ac rylamide] | 31 nM | 61.4 nM | 77.1 nM | > 3000 nM |  |  |  | 
90.3 nM | 36.2 nM | 461 nM | 117 nM | 271 nM | 170 nM | 6.3 nM | 234 nM | 114 nM |  | COc1cc(N(C)CCN(C)C)c(NC(=O)/C=C/CN(C)C)cc1Nc1ncnc(Nc2cc(F)c(F)cc2C(C)(C)O)n1 [Compound 5, (E)-N-(5-(4-(4,5-difluoro-2-(2-hydroxypropan-2-yl)phenylamino)-1,3,5-triazin-2-ylamino)-2-((2-(dimethylamino)ethyl)(methyl)amino)-4-methoxypheny 1)-4-(dimethylamino)but-2-enamide] | 68.9 nM |  |  |  |  |  |  | 
133 nM | 33.9 nM | 137 nM | 53.2 nM | 35.8 nM | 63.3 nM | 1.8 nM | 144 nM | 8.5 nM |  | C=CC(=O)Nc1cc(Nc2ncnc(Nc3cc(Cl)c(F)cc3C(C)(C)O)n2)c(OC)cc1N(C)CCN1CCC[C@@H]1C [Compound 42, (S)-N-(5-(4-(5-chloro-4-fluoro-2-(2-hydroxypropan-2-yl)phenylamino)-1,3,5-triazin-2-ylamino)-4-methoxy-2-(methyl(2-(2-methylpyrrolidin-1-yl)ethyl)amino)phenyl) acrylamide] | 195 nM |  |  |  |  |  |  | 
479 nM | 188 nM | 382 nM | 234 nM | 315 nM | 358 nM | 7.9 nM | 484 nM | 29.6 nM |  | C=CC(=O)Nc1cc(Nc2ncnc(Nc3cc(Cl)c(F)cc3C(C)(C)O)n2)c(OC)cc1N1CCC[C@H]1CN(C)C [Compound 65, (S)-N-(5-(4-(5-chloro-4-fluoro-2-(2-hydroxypropan-2-yl)phenylamino)-1,3,5-triazin-2-ylamino)-2-(2-((dimethylamino)methyl)pyrrolidin-1-yl)-4-methoxyphenyl)acrylamide] | 776 nM |  |  |  |  |  |  | 
